Source: patent US20050112573A1, “Method of detecting toxic substance” (priority 2001, published 2005)

Test system: yeast genes (level of expressed mRNA)
Assay: DNA chip analysis of expressed mRNA of yeast genes after 2 h culture with a toxic chemical substance
Assay type: cell-based, Saccharomyces cerevisiae S288C
Protocol: Yeast (Saccharomyces cerevtisiae S288C (α SUC2mal mel gap2 CUP1)) were cultured at 25° C. on YPD medium (yeast extract 1%, polypepton 2%, glucose 2%). One of toxic chemical substances was added to the cell at logarithmic growth phase, and the cell was further cultured for two hours. Cell was cultured without any chemical substance in the same condition, and was used as control. Concentrations of the chemical substances were defined to inhibit the growth of the yeast but not lead to death.
After the completion of cultivation, the culture was centrifuged to collect the cells. To the cells, sodium acetate buffer (50 mM sodium acetate, 10 mM EDTA, 1% SDS) was added, and the mixture was shaken at 65° C. for five minutes, followed by returning to room temperature, and obtaining the supernatant, which procedure was repeated two times. To the supernatant, ½ amount of a solution of phenol/chloroform was added, and the mixture was centrifuged to give a supernatant, which was added with an equal amount of chloroform, and the mixture was centrifuged to give a supernatant. To the supernatant, an equal amount of isopropanol containing 0.3 M sodium acetate was added, and the mixture was allowed to stand at room temperature for 30 minutes, after which the mixture was centrifuged to give a sediment of the whole RNAs. Seventy % ethanol was added to the sediment, and the mixture was again centrifuged to give a sediment, which was then dried and dissolved in water. mRNA was isolated from the whole RNAs as followings. In view of the fact that a poly A chain is attached to the 3′ terminus of mRNA, a polynucleotide having a poly T structure which was immobilized on the surface of latex beads was used to trap the mRNA, and then the mRNA was washed and eluted with spine column (Oligotex-dT30<Super>mRNA Purification Kit, Takara). Reverse transcription of the mRNA was conducted with a reverse transcriptase (Super Script II Reverse Transcriptase; catalogue No. 18064-014, GibcoBRL) using fluorescence-labeled nucleotides to give cDNAs that were introduced with Cy3-dUTP or Cy5-dUTP during the reverse transcription.
The labeled cDNAs were dissolved in TE buffer (10 mM Tris-HCl/1 mM EDTA, pH8.0), and the solution was dropped on the DNA chip containing the whole genes of yeast (DNA Chip Research Inc. Japan) so that the cDNAs were hybridized on the DNA chip at 65° C. for over 12 hours. The fluoresces intensity of the DNA chip was read with a scanner, and the ratio relative to the fluorescence intensity resulting from the absence of chemical substance was estimated as the following, which is shown in Tables 1 to 9: [formula]
In the Tables, “Intensity” indicated in the rightmost column is a value of the level of expressed mRNA of each gene in control cells as divided by the average level of the expressions of the whole genes.

## N#Cc1c(Cl)c(Cl)c(Cl)c(C#N)c1Cl [(9), 2,4,5,6-tetrachloro-1,3-benzenedicarbonitrile]
Yeast gene YAR010C
  The level of expressed mRNA in the presence of chemical substance/The level of expressed mRNA in the absence of chemical substance: 1.2
Yeast gene YBL005W-A
  The level of expressed mRNA in the presence of chemical substance/The level of expressed mRNA in the absence of chemical substance: 0.8
Yeast gene YBL041W
  The level of expressed mRNA in the presence of chemical substance/The level of expressed mRNA in the absence of chemical substance: 2.8
Yeast gene YBL043W
  The level of expressed mRNA in the presence of chemical substance/The level of expressed mRNA in the absence of chemical substance: 0.5
Yeast gene YBL078C
  The level of expressed mRNA in the presence of chemical substance/The level of expressed mRNA in the absence of chemical substance: 12.3
Yeast gene YBR214W
  The level of expressed mRNA in the presence of chemical substance/The level of expressed mRNA in the absence of chemical substance: 2.2
Yeast gene YCL020W
  The level of expressed mRNA in the presence of chemical substance/The level of expressed mRNA in the absence of chemical substance: 0.9
Yeast gene YCL027W
  The level of expressed mRNA in the presence of chemical substance/The level of expressed mRNA in the absence of chemical substance: 0.7
Yeast gene YCR004C
  The level of expressed mRNA in the presence of chemical substance/The level of expressed mRNA in the absence of chemical substance: 4.7
Yeast gene YCR071C
  The level of expressed mRNA in the presence of chemical substance/The level of expressed mRNA in the absence of chemical substance: 0.6
Yeast gene YCR088W
  The level of expressed mRNA in the presence of chemical substance/The level of expressed mRNA in the absence of chemical substance: 0.8
Yeast gene YDL008W
  The level of expressed mRNA in the presence of chemical substance/The level of expressed mRNA in the absence of chemical substance: 2.3
Yeast gene YDL238C
  The level of expressed mRNA in the presence of chemical substance/The level of expressed mRNA in the absence of chemical substance: 1.7
Yeast gene YDR055W
  The level of expressed mRNA in the presence of chemical substance/The level of expressed mRNA in the absence of chemical substance: 0.8
Yeast gene YDR084C
  The level of expressed mRNA in the presence of chemical substance/The level of expressed mRNA in the absence of chemical substance: 0.6
Yeast gene YDR085C
  The level of expressed mRNA in the presence of chemical substance/The level of expressed mRNA in the absence of chemical substance: 0.4
Yeast gene YDR104C
  The level of expressed mRNA in the presence of chemical substance/The level of expressed mRNA in the absence of chemical substance: 2.8
Yeast gene YDR115W
  The level of expressed mRNA in the presence of chemical substance/The level of expressed mRNA in the absence of chemical substance: 1.1
Yeast gene YDR259C
  The level of expressed mRNA in the presence of chemical substance/The level of expressed mRNA in the absence of chemical substance: 1.0
Yeast gene YDR315C
  The level of expressed mRNA in the presence of chemical substance/The level of expressed mRNA in the absence of chemical substance: 1.1
Yeast gene YDR358W
  The level of expressed mRNA in the presence of chemical substance/The level of expressed mRNA in the absence of chemical substance: 2.9
Yeast gene YDR388W
  The level of expressed mRNA in the presence of chemical substance/The level of expressed mRNA in the absence of chemical substance: 1.4
Yeast gene YDR432W
  The level of expressed mRNA in the presence of chemical substance/The level of expressed mRNA in the absence of chemical substance: 0.7
Yeast gene YDR481C
  The level of expressed mRNA in the presence of chemical substance/The level of expressed mRNA in the absence of chemical substance: 1.9
Yeast gene YDR510W
  The level of expressed mRNA in the presence of chemical substance/The level of expressed mRNA in the absence of chemical substance: 2.7
Yeast gene YEL042W
  The level of expressed mRNA in the presence of chemical substance/The level of expressed mRNA in the absence of chemical substance: 0.2
Yeast gene YEL066W
  The level of expressed mRNA in the presence of chemical substance/The level of expressed mRNA in the absence of chemical substance: 1.3
Yeast gene YER039C
  The level of expressed mRNA in the presence of chemical substance/The level of expressed mRNA in the absence of chemical substance: 1.2
Yeast gene YER107C
  The level of expressed mRNA in the presence of chemical substance/The level of expressed mRNA in the absence of chemical substance: 0.4
Yeast gene YER130C
  The level of expressed mRNA in the presence of chemical substance/The level of expressed mRNA in the absence of chemical substance: 0.5
Yeast gene YFL028C
  The level of expressed mRNA in the presence of chemical substance/The level of expressed mRNA in the absence of chemical substance: 2.7
Yeast gene YFL043C
  The level of expressed mRNA in the presence of chemical substance/The level of expressed mRNA in the absence of chemical substance: 2.2
Yeast gene YGL229C
  The level of expressed mRNA in the presence of chemical substance/The level of expressed mRNA in the absence of chemical substance: 1.8
Yeast gene YGR136W
  The level of expressed mRNA in the presence of chemical substance/The level of expressed mRNA in the absence of chemical substance: 2.1
Yeast gene YGR189C
  The level of expressed mRNA in the presence of chemical substance/The level of expressed mRNA in the absence of chemical substance: 0.3
Yeast gene YGR213C
  The level of expressed mRNA in the presence of chemical substance/The level of expressed mRNA in the absence of chemical substance: 7.5
Yeast gene YGR257C
  The level of expressed mRNA in the presence of chemical substance/The level of expressed mRNA in the absence of chemical substance: 1.5
Yeast gene YHR004C
  The level of expressed mRNA in the presence of chemical substance/The level of expressed mRNA in the absence of chemical substance: 1.1
Yeast gene YHR071W
  The level of expressed mRNA in the presence of chemical substance/The level of expressed mRNA in the absence of chemical substance: 1.0
Yeast gene YHR139C
  The level of expressed mRNA in the presence of chemical substance/The level of expressed mRNA in the absence of chemical substance: 107.2
Yeast gene YHR142W
  The level of expressed mRNA in the presence of chemical substance/The level of expressed mRNA in the absence of chemical substance: 0.4
Yeast gene YIL123W
  The level of expressed mRNA in the presence of chemical substance/The level of expressed mRNA in the absence of chemical substance: 0.1
Yeast gene YIL140W
  The level of expressed mRNA in the presence of chemical substance/The level of expressed mRNA in the absence of chemical substance: 0.7
Yeast gene YJL073W
  The level of expressed mRNA in the presence of chemical substance/The level of expressed mRNA in the absence of chemical substance: 1.7
Yeast gene YJL089W
  The level of expressed mRNA in the presence of chemical substance/The level of expressed mRNA in the absence of chemical substance: 1.6
Yeast gene YJL116C
  The level of expressed mRNA in the presence of chemical substance/The level of expressed mRNA in the absence of chemical substance: 2.4
Yeast gene YJR004C
  The level of expressed mRNA in the presence of chemical substance/The level of expressed mRNA in the absence of chemical substance: 0.3
Yeast gene YJR086W
  The level of expressed mRNA in the presence of chemical substance/The level of expressed mRNA in the absence of chemical substance: 1.4
Yeast gene YKL008C
  The level of expressed mRNA in the presence of chemical substance/The level of expressed mRNA in the absence of chemical substance: 0.3
Yeast gene YKL013C
  The level of expressed mRNA in the presence of chemical substance/The level of expressed mRNA in the absence of chemical substance: 1.5
